From the supplement of paper PMC6733853

Tests used:
[1] = target: delta opioid receptor (rat) (UniProt P33533); experiment: Log(tau/KA) transduction coefficient (log10 (M-1)); higher = more effective agonism; conditions: receptor: rat DOR
mu opioid receptor (rat) [2] = target: mu opioid receptor (rat) (UniProt P33535); experiment: as above; conditions: receptor: rat MOR
[3] = target: delta opioid receptor (human) (UniProt P41143); experiment: as above; conditions: receptor: human DOR
[4] = target: delta opioid receptor (rat) (UniProt P33533)
[5] = target: mu opioid receptor (human) (UniProt P35372); experiment: Log(tau/KA) transduction coefficient (log10 (M-1)); higher = more effective agonism; conditions: receptor: human MOR
mu opioid receptor (human), sequence (P35372 whole entry): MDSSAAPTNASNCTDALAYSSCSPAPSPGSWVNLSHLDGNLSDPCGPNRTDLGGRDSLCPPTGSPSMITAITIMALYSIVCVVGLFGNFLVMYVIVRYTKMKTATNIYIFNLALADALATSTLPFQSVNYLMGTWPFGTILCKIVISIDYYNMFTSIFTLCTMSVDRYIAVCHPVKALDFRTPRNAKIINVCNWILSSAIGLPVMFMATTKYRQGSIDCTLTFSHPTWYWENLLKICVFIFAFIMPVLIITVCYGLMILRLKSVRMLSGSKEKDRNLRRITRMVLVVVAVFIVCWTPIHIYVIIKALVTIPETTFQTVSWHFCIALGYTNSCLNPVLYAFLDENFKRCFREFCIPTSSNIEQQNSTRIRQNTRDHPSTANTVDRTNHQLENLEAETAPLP

mu opioid receptor (rat) [6] = target: mu opioid receptor (rat) (UniProt P33535)

delta opioid receptor (human), sequence (P41143 whole entry): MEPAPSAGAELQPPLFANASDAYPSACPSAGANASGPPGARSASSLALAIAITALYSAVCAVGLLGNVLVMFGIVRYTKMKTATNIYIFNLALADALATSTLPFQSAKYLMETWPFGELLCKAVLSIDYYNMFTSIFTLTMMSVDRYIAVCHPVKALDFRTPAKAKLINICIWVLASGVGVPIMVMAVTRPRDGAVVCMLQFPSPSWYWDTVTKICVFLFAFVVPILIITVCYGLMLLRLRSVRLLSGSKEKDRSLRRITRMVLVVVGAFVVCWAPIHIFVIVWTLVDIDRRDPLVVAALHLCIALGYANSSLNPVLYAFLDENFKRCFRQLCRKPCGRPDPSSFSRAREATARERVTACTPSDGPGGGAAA
mu opioid receptor (rat), sequence (P33535 whole entry): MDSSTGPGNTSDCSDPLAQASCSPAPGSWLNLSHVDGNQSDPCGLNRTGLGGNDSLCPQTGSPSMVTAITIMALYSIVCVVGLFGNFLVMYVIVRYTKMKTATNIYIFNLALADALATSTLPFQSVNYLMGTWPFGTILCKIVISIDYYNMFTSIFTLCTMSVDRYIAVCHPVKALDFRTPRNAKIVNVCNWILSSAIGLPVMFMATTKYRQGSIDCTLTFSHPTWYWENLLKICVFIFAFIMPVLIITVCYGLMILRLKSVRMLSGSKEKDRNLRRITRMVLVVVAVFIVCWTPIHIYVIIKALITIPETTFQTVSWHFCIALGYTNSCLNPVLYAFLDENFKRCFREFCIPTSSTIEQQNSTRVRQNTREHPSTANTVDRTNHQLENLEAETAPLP
delta opioid receptor (rat), sequence (P33533 whole entry): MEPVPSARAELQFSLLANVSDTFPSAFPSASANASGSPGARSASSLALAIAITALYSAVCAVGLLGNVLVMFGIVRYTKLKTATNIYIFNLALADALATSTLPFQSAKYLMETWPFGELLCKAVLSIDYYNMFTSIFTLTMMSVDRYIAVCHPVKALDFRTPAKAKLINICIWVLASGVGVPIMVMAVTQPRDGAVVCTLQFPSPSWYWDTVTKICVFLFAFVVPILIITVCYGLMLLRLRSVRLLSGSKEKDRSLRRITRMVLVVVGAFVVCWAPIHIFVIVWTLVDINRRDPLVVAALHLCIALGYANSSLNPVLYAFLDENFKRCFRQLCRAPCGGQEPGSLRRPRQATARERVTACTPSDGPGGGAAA

CO[C@@]12CC[C@@]3(C[C@@H]1[C@](C)(O)C(C)(C)C)[C@H]1Cc4ccc(O)c5c4[C@@]3(CCN1CC1CC1)[C@H]2O5 [Buprenorphine]
Log(tau/KA) transduction coefficient (log10)
Conditions	Gαi1	Gαi2	Gαo	Kir	cAMP	βarrestine 2	βarrestine 2-GRK2	βarrestine 2-GRK5	βarrestine 2-GRK6
[1]	6.16	6.14	6.06	4.6	7.87	–	–	–	–
[3]	5.51	6.73	6.61	4.88	8.45	–	–	–	3.5
mu opioid receptor (rat) [2]	6.88	7.63	7.28	8.05	6.93	5.04	5.79	5.36	–

CO[C@@]12CC[C@@]3(C[C@@H]1[C@](C)(O)C(C)(C)C)[C@H]1Cc4ccc(O)c5c4[C@@]3(CCN1CC1CC1)[C@H]2O5 [Buprenorphine] (receptor: rat DOR)
[4]
Conditions	pEC50
Gαi1	7.49
Gαi2	6.88
Gαo	7.28
Kir	5.53
cAMP	7.78

C[C@@H](NC(=O)[C@@H](N)Cc1ccc(O)cc1)C(=O)NCC(=O)N(C)[C@@H](Cc1ccccc1)C(=O)NCCO [DAMGO]
mu opioid receptor (rat) [2]
Conditions	Log(tau/KA) transduction coefficient (log10)
Gαi1	6.18
Gαi2	7.5
Gαo	6.49
Kir	7.11
cAMP	8.44
βarrestine 1	5.59
βarrestine 2	5.51
βarrestine 2-GRK2	6.21
βarrestine 2-GRK5	6.26
βarrestine 2-GRK6	5.9

CN(C)C(=O)C(CCN1CCC(O)(c2ccc(Cl)cc2)CC1)(c1ccccc1)c1ccccc1 [Loperamide]
Log(tau/KA) transduction coefficient (log10)
Conditions	Gαi1	Gαi2	Gαo	Kir	cAMP	βarrestine 1	βarrestine 2	βarrestine 2-GRK2	βarrestine 2-GRK5	βarrestine 2-GRK6
[1]	4.78	5.24	5.22	5.02	5.9	3.96	4.1	4.29	4.61	4.48
[3]	4.52	5.79	5.28	5.54	7.28	4.05	4.37	4.62	4.71	4.63
mu opioid receptor (rat) [2]	7.2	8.27	7.56	6.46	7.69	6.08	5.68	6.37	6.39	6.04

CN(C)C(=O)C(CCN1CCC(O)(c2ccc(Cl)cc2)CC1)(c1ccccc1)c1ccccc1 [Loperamide] (receptor: rat DOR)
[4]
Conditions	pEC50
Gαi1	5.05
Gαi2	5.42
Gαo	5.51
Kir	5.23
cAMP	6.1
βarrestine 1	4.55
βarrestine 2	4.47
βarrestine 2-GRK2	4.36
βarrestine 2-GRK5	4.83
βarrestine 2-GRK6	4.54

CCC1(c2cccc(O)c2)CCCCN(C)C1 (stereo not given) [Meptazinol]
Log(tau/KA) transduction coefficient (log10)
Conditions	Gαi1	Gαi2	Gαo	Kir	cAMP
[5]	5.23	6.1	6.31	4.84	8.02
mu opioid receptor (rat) [2]	5.15	6.21	5.38	5.41	6.58

CCC1(c2cccc(O)c2)CCCCN(C)C1 (stereo not given) [Meptazinol] (receptor: rat MOR)
mu opioid receptor (rat) [6]
Conditions	pEC50
Gαi1	5.94
Gαi2	6.52
Gαo	6.28
Kir	6.08
cAMP	6.99

CSCC[C@H](NC(=O)[C@H](Cc1ccccc1)NC(=O)CNC(=O)CNC(=O)[C@@H](N)Cc1ccc(O)cc1)C(=O)O [Met-Enk]
Log(tau/KA) transduction coefficient (log10)
Conditions	Gαi1	Gαi2	Gαo	Kir	cAMP	βarrestine 1	βarrestine 2	βarrestine 2-GRK2	βarrestine 2-GRK5	βarrestine 2-GRK6
[1]	5.86	6.55	6.44	4.97	9.4	6.29	6.58	6.67	7.03	6.83
[3]	5.92	7.02	6.59	7.27	8.98	6.24	6.28	6.57	7.12	6.88
[5]	6.47	7.32	7.4	6.58	8.62	5.9	5.97	6.66	6.65	6.36
mu opioid receptor (rat) [2]	7.24	8.73	6.21	6.72	8.44	5.63	5.65	6.24	6.35	6.06

CN1CC[C@]23c4c5ccc(O)c4O[C@H]2[C@@H](O)C=C[C@H]3[C@H]1C5 [Morphine]
Log(tau/KA) transduction coefficient (log10)
Conditions	Gαi1	Gαi2	Gαo	Kir	cAMP	βarrestine 2	βarrestine 2-GRK2	βarrestine 2-GRK5	βarrestine 2-GRK6
[1]	4.41	5.31	5.14	4.79	6.68	4.16	4.24	4.53	4.2
[3]	4.26	5.75	5.24	5.05	8.19	–	–	4.04	3.94
mu opioid receptor (rat) [2]	6.9	8.35	7.99	7.44	8.08	5.69	6.29	6.37	5.35

COc1ccc2c3c1O[C@H]1C(=O)CC[C@@]4(O)[C@@H](C2)N(C)CC[C@]314 [Oxycodone]
Log(tau/KA) transduction coefficient (log10)
Conditions	Gαi1	Gαi2	Gαo	Kir	cAMP	βarrestine 1	βarrestine 2	βarrestine 2-GRK2	βarrestine 2-GRK5	βarrestine 2-GRK6
[1]	2.98	4.41	3.8	3.29	6.08	–	3.12	3.16	3.5	3.31
[3]	3.52	5.21	4.26	3.72	6.63	–	–	3.82	3.15	3.02
mu opioid receptor (rat) [2]	5.49	6.52	5.91	5.97	7.45	5.5	–	4.81	5.06	4.81

COc1cccc(C2(O)CCCCC2CN(C)C)c1 (stereo not given) [Tramadol]
Log(tau/KA) transduction coefficient (log10)
Conditions	Gαi1	Gαi2	Gαo	Kir	cAMP
[5]	3.39	4.54	4.27	3.78	6.29
mu opioid receptor (rat) [2]	2.98	4.73	3.82	3.81	5.02
